Laboratory results as given in ChEMBL document CHEMBL3232977, “Medicinal chemistry optimization of antiplasmodial imidazopyridazine hits from high throughput screening of a SoftFocus kinase library: part 1” (J Med Chem, 2014).
≈ marks a conversion by molar mass, not a printed value.

How the values were obtained:
[1] = Hepatic extraction ratio in human liver microsomes at 1 uM up to 60 mins by LC-MS analysis; assay type: ADME; details: read-out: ERH
[2] = physchem; details: 0.01 M HCl, pH 2
[3] = system: Plasmodium falciparum; assay: microbe, parasite or virus in culture; details: K1
[4] = system: Plasmodium falciparum; assay: microbe, parasite or virus in culture; details: NF54
[5] = system: Plasmodium berghei; assay: Antimalarial activity against GFP-transfected Plasmodium berghei ANKA infected in mouse assessed as reduction of parasitemia at 40 mg/kg, po qd for 4 days; assay type: functional
[6] = system: Plasmodium berghei; assay: Antimalarial activity against GFP-transfected Plasmodium berghei ANKA infected in mouse assessed as mean survival days at 40 mg/kg, po qd for 4 days; assay type: functional
[7] = Apparent Cmax in GFP-transfected Plasmodium berghei ANKA infected mouse at 40 mg/kg, po qd for 4 days; assay type: ADME, organism-based; parameters: dose 40 mg/kg, route oral; details: in vivo
[8] = physchem; details: buffer, pH 2
[9] = system: Plasmodium berghei; details: dose 30 mg/kg; route oral
[10] = system: Plasmodium berghei; details: dose 30 mg/kg; route oral; remark: listed apart in the source

| Compound | solubility [2] [µg/mL] | IC50 [3] [nM] | IC50 [4] [nM] | further results |
| --- | --- | --- | --- | --- |
| COc1ccc(-c2ccc3ncc(-c4ccncc4)n3n2)cc1OC | > 100 | 14 | 16 | hepatic extraction ratio at 1 h, 1 µM [1]: 0.86 |
| CS(=O)(=O)Nc1cccc(-c2ccc3ncc(-c4ccncc4)n3n2)c1 | > 100 | 15 | 16 | hepatic extraction ratio at 1 h, 1 µM [1]: 0.82 |
| COc1ccc(-c2cnc3ccc(-c4cccnc4)nn23)cc1OC |  | 23.5 | 25.9 | hepatic extraction ratio at 1 h, 1 µM [1]: 0.92 |
| CS(=O)(=O)c1cccc(-c2ccc3ncc(-c4ccncc4)n3n2)c1 | > 100 | 28 | 46 |  |
| CC(C)(C)OC(=O)NCc1cccc(-c2ccc3ncc(-c4ccncc4)n3n2)c1 | > 100 | 97 | 95 |  |
| FC(F)(F)Oc1cccc(-c2ccc3ncc(-c4ccncc4)n3n2)c1 | > 100 | 118 | 146 |  |
| CC(C)(C)c1cccc(-c2ccc3ncc(-c4ccncc4)n3n2)c1 | > 100 | 122 | 137 |  |
| Fc1ccc(-c2ccc3ncc(-c4ccncc4)n3n2)cc1 | > 100 | 138 | 186 |  |
| Clc1cccc(-c2ccc3ncc(-c4ccncc4)n3n2)c1 | > 100 | 183 | 202 |  |
| c1cc(-c2ccc3ncc(-c4ccncc4)n3n2)c2ccncc2c1 | > 100 | 192 | 223 |  |
| Fc1cccc(-c2ccc3ncc(-c4ccncc4)n3n2)c1 | > 100 | 203 | 272 |  |
| c1cc(-c2ccc3ncc(-c4ccncc4)n3n2)cc(N2CCOCC2)c1 | > 100 | 246 | 283 |  |
| Fc1ccc(-c2ccc3ncc(-c4ccncc4)n3n2)cc1F | > 100 | 415 | 496 |  |
| COc1ccc(-c2ccc3ncc(-c4ccncc4)n3n2)cn1 | > 100 | 412 | 603 |  |
| NCc1ccc(-c2ccc3ncc(-c4ccncc4)n3n2)cc1 | > 100 | 491 | 335 |  |
| NCc1cccc(-c2ccc3ncc(-c4ccncc4)n3n2)c1 | > 100 | 588 | 289 |  |
| FC(F)(F)c1ccc(-c2ccc3ncc(-c4ccncc4)n3n2)cn1 | > 100 | 873 | 964 |  |
| FC(F)(F)Oc1ccc(-c2ccc3ncc(-c4ccncc4)n3n2)cc1 | > 100 | 980 | 1060 |  |
| CN1CCN(S(=O)(=O)c2ccc(-c3ccc4ncc(-c5ccncc5)n4n3)cc2)CC1 | > 100 | 1250 | 739 |  |

| Compound | solubility [2] [µg/mL] | IC50 [3] [nM] | IC50 [4] [nM] | further results |
| --- | --- | --- | --- | --- |
| CC(C)(C)c1ccc(-c2ccc3ncc(-c4ccncc4)n3n2)cc1 | > 100 | 1420 | 1880 |  |
| O=S(=O)(c1ccc(-c2ccc3ncc(-c4ccncc4)n3n2)cc1)N1CCOCC1 | > 100 | 1490 | 2240 |  |
| CC(C)(C)OC(=O)NCc1ccc(-c2ccc3ncc(-c4ccncc4)n3n2)cc1 | > 100 | 1610 | 1630 |  |
| c1cnc2c(-c3ccc4ncc(-c5ccncc5)n4n3)cccc2c1 | > 100 | 1670 | 2150 |  |
| c1cc(-c2cnc3ccc(-c4ccc(N5CCOCC5)cc4)nn23)ccn1 | > 100 | > 2800 | > 2800 |  |
| CS(=O)(=O)c1ccc(-c2ccc3ncc(-c4ccncc4)n3n2)cc1 | > 100 | > 2850 | > 2850 |  |
| C1=C(c2ccc3ncc(-c4ccncc4)n3n2)Cc2nonc2C1 | > 100 | > 3180 | > 3180 |  |
| CS(=O)(=O)c1ccc(-c2cnc3ccc(-c4cccc(S(=O)(=O)NC5CC5)c4)nn23)cc1 | > 100 | 0.58 | 0.66 |  |
| CS(=O)(=O)c1ccc(-c2cnc3ccc(-c4cccc(S(=O)(=O)NCc5ccccc5)c4)nn23)cc1 | > 100 | 3.3 | 3.5 |  |
| CS(=O)(=O)c1ccc(-c2cnc3ccc(-c4cccc(S(N)(=O)=O)c4)nn23)cc1 | > 100 | 4.4 | 4.4 | MSD [5]: <40 days; MSD [6]: 4 days; Cmax [7]: 20 nM |
| CN1CCN(C(=O)c2cccc(-c3ccc4ncc(-c5ccc(S(C)(=O)=O)cc5)n4n3)c2)CC1 | > 100 | 5.5 | 6.1 | solubility [8]: 50 µg/mL (≈ 105 µM) |
| CS(=O)(=O)c1ccc(-c2cnc3ccc(-c4cccc(C(=O)N5CCCCC5)c4)nn23)cc1 | > 100 | 7.2 | 6.5 |  |
| CS(=O)(=O)c1ccc(-c2cnc3ccc(-c4cccc(C(=O)NS(=O)(=O)C5CC5)c4)nn23)cc1 | > 100 | 11 | 14 |  |
| CS(=O)(=O)Nc1cccc(-c2ccc3ncc(-c4ccc(S(C)(=O)=O)cc4)n3n2)c1 | > 100 | 19 | 19 |  |
| Cc1ccc(-c2ccc3ncc(-c4ccc(S(C)(=O)=O)cc4)n3n2)cc1C(F)(F)F | > 100 | 26 | 32 | MSD [5]: 79 days; MSD [6]: 7 days |
| CS(=O)(=O)c1ccc(-c2cnc3ccc(-c4cccc(C(F)(F)F)c4)nn23)cc1 | > 100 | 55 | 79 |  |
| CS(=O)(=O)c1ccc(-c2cnc3ccc(-c4cccc(C(=O)NCCO)c4)nn23)cc1 | > 100 | 78 | 99 | solubility [8]: 50 µg/mL (≈ 115 µM) |
| CS(=O)(=O)c1ccc(-c2cnc3ccc(-c4cccc(C(N)=O)c4)nn23)cc1 | > 100 | 99 | 102 |  |
| CS(=O)(=O)c1ccc(-c2cnc3ccc(-c4cccc(C#N)c4)nn23)cc1 | > 100 | 96 | 107 |  |

| Compound | solubility [2] [µg/mL] | IC50 [3] [nM] | IC50 [4] [nM] | further results |
| --- | --- | --- | --- | --- |
| CN(C)c1cccc(-c2ccc3ncc(-c4ccc(S(C)(=O)=O)cc4)n3n2)c1 | > 100 | 107 | 117 |  |
| CS(=O)(=O)c1ccc(-c2cnc3ccc(-c4ccc(C(F)(F)F)cc4)nn23)cc1 | > 100 | 134 | 189 |  |
| CS(=O)(=O)c1ccc(-c2cnc3ccc(-c4ccc(C(=O)NC5CCCC5)cc4)nn23)cc1 | > 100 | 146 | 154 |  |
| CS(=O)(=O)c1ccc(-c2cnc3ccc(-c4ccc(F)c(Cl)c4)nn23)cc1 | > 100 | 152 | 179 |  |
| CC(C)(C)NC(=O)c1ccc(F)c(-c2ccc3ncc(-c4ccc(S(C)(=O)=O)cc4)n3n2)c1 | > 100 | 155 | 159 |  |
| CS(=O)(=O)c1ccc(-c2cnc3ccc(-c4ccc(C(F)(F)F)c(F)c4)nn23)cc1 | > 100 | 315 | 393 |  |
| CS(=O)(=O)c1ccc(-c2cnc3ccc(-c4ccc(C(F)(F)F)nc4)nn23)cc1 | > 100 | 633 | 763 |  |
| CS(=O)(=O)c1ccc(-c2ccc3ncc(-c4ccc(S(C)(=O)=O)cc4)n3n2)cc1 | > 100 | 753 | 706 |  |
| CS(=O)(=O)c1ccc(-c2cnc3ccc(-c4cc(C(=O)NC5CCCCC5)ccc4F)nn23)cc1 | > 100 | > 2030 | > 2030 |  |
| c1cncc(-c2ccc3ncc(-c4cccnc4)n3n2)c1 | > 100 | 1070 | 1270 |  |
| CS(=O)(=O)c1ccc(-c2ccc3ncc(-c4cccnc4)n3n2)cc1 | > 100 | > 2850 | > 2850 |  |
| CS(=O)(=O)Nc1cccc(-c2ccc3ncc(-c4cncnc4)n3n2)c1 | > 100 | 76 | 93 | hepatic extraction ratio at 1 h, 1 µM [1]: 0.75 |
| CS(=O)(=O)Nc1cccc(-c2ccc3ncc(-c4ccc([S+](N)[O-])cc4)n3n2)c1 (stereo unspecified) | > 100 | 20 | 18 | hepatic extraction ratio at 1 h, 1 µM [1]: 0.42 |
| N[S+]([O-])c1ccc(-c2ccc3ncc(-c4ccc([S+](N)[O-])cc4)n3n2)cc1 (stereo unspecified) | > 100 | > 2330 | > 2330 |  |
| CN(C)S(=O)(=O)c1ccc(-c2ccc3ncc(-c4ccc(S(=O)(=O)N(C)C)cc4)n3n2)cc1 | > 100 | > 2060 | > 2060 |  |
| CS(=O)(=O)c1ccc(-c2ccc3ncc(-c4ccc(C(F)(F)F)cc4)n3n2)cc1 | > 100 | 668 | 764 | hepatic extraction ratio at 1 h, 1 µM [1]: < 0.28 |
| O=C(c1ccc(-c2ccc3ncc(-c4ccc(C(F)(F)F)cc4)n3n2)cc1)N1CCOCC1 | > 100 | 732 | 763 | hepatic extraction ratio at 1 h, 1 µM [1]: 0.59 |
| O[C@@H](c1cc(C(F)(F)F)nc2c(C(F)(F)F)cccc12)[C@H]1CCCCN1 (relative stereo) [(S,R)-MEFLOQUINE] |  | 8.4 | 12 | MSD [9]: 99.9 days; MSD [10]: 29 days |
| C[C@H]1[C@H](OC(=O)CCC(=O)O)O[C@@H]2O[C@@]3(C)CC[C@H]4[C@H](C)CC[C@@H]1[C@@]24OO3 [ARTESUNATE] |  | 3 | 4 | MSD [9]: 99 days; MSD [10]: 10 days |
